Measurements as given in patent publication US8735364B2, “Antisense modulation of apolipoprotein B expression” (Genzyme Corporation, priority 2001, dated 2014).

What was measured:
Format in all cases: in vivo, mouse
[1] = system: apolipoprotein B mRNA; assay: Target mRNA levels in liver, high fat fed mice, 6 week timecourse study; conditions: high fat fed C57BL/6 mice, six weeks
Protocol: (§1) Male C57BL/6 mice (n=8) receiving a high fat diet (60% kcal fat) were evaluated over the course of 6 weeks for the effects of treatment with the antisense oligonucleotide, ISIS 147764. Control animals received saline treatment (50 mg/kg). A subset of animals received a daily oral dose (20 mg/kg) atorvastatin calcium (Lipitor®, Pfizer Inc.). All mice, except atorvastatin-treated animals, were dosed intraperitoneally every three days (twice a week), after fasting overnight, with 5, 25, 50 mg/kg ISIS 147764 (SEQ ID No: 109) or saline (50 mg/kg) for six weeks. Serum cholesterol and lipoproteins were analyzed at 0, 2 and 6 week interim timepoints. At study termination, animals were sacrificed 48 hours after the final injections and evaluated for levels of target mRNA levels in liver, cholesterol, lipoprotein, triglyceride, liver enzyme (AST and ALT) and serum glucose levels as well as body, liver, spleen and fat pad weights.
Male C57BL/6 mice (n=8) receiving a high fat diet (60% kcal fat) were evaluated over the course of 6 weeks for the effects of ISIS 147764 on mRNA expression. Control animals received saline treatment (50 mg/kg). Mice were dosed intraperitoneally every three days (twice a week), after fasting overnight, with 5, 25, 50 mg/kg ISIS 147764 (SEQ ID No: 109) or saline (50 mg/kg) for six weeks. At study termination, animals were sacrificed 48 hours after the final injections and evaluated for levels of target mRNA levels in liver.

[2] = Serum cholesterol and triglyceride levels, high fat fed mice, 6 week study; conditions: for Percent Inhibition of cholesterol levels: normalized to saline; for triglycerides / serum cholesterol: study end; for triglycerides: control 115 mg/dL; for serum cholesterol: control 240 mg/dL
Protocol: as §1
Male C57BL/6 mice (n=8) receiving a high fat diet (60% kcal fat) were evaluated over the course of 6 weeks for the effects of ISIS 147764 on serum cholesterol and triglyceride levels. Control animals received saline treatment (50 mg/kg). Mice were dosed intraperitoneally every three days (twice a week), after fasting overnight, with 5, 25, 50 mg/kg ISIS 147764 (SEQ ID No: 109) or saline (50 mg/kg) for six weeks.
Values in the table are expressed as percent inhibition and are normalized to the saline control.
In addition to serum cholesterol, at study termination, animals were sacrificed 48 hours after the final injections and evaluated for triglyceride levels.

[3] = Lipoprotein (VLDL, LDL, HDL) levels, high fat fed mice, 6 week study; conditions: for HDL Percent Inhibition / LDL Percent Inhibition / VLDL Percent Inhibition: negative = increase
Protocol: as §1
Male C57BL/6 mice (n=8) receiving a high fat diet (60% kcal fat) were evaluated over the course of 6 weeks for the effects of ISIS 147764 on lipoprotein (VLDL, LDL and HDL) levels. Control animals received saline treatment (50 mg/kg). Mice were dosed intraperitoneally every three days (twice a week), after fasting overnight, with 5, 25, 50 mg/kg ISIS 147764 (SEQ ID No: 109) or saline (50 mg/kg) for six weeks.
Values in the table are expressed as percent inhibition and are normalized to the saline control. Negative values indicate an observed increase in lipoprotein levels.

[4] = Glucose, cholesterol and lipoprotein levels in ApoE knockout mice; conditions: for Lipoprotein Levels HDL: Control 51; for Glucose Levels: Control 225; for Lipoprotein Levels LDL: Control 525; for Lipoprotein Levels VLDL: Control 1190; for Cholesterol Levels: Control 1750
Protocol: Female ApoE knockout mice ranged in age from 5 to 7 weeks and were placed on a normal diet for 2 weeks before study initiation. ApoE knockout mice were then fed ad libitum a 60% fat diet, with 0.15% added cholesterol to induce dyslipidemia and obesity. Control animals were maintained on a high-fat diet with no added cholesterol After overnight fasting, mice from each group were dosed intraperitoneally every three days with saline, 50 mg/kg of a control antisense oligonucleotide (ISIS 29837 […]; SEQ ID NO. 124) or 5, 25 or 50 mg/kg ISIS 147764 (SEQ ID No: 109) for six weeks.
(§2) At study termination and forty eight hours after the final injections, animals were sacrificed and evaluated for target mRNA levels in liver by RT-PCR methods verified by Northern Blot analysis, glucose levels, cholesterol and lipid levels by HPLC separation methods and triglyceride and liver enzyme levels (perfomed by LabCorp Preclinical Services; San Diego, Calif.). Data are normalized to saline controls.

[5] = Liver enzyme levels in ApoE knockout mice; conditions: for Liver Enzyme Levels AST: Control 55; for Liver Enzyme Levels ALT: Control 56
From the text: Female ApoE knockout mice ranged in age from 5 to 7 weeks and were placed on a normal diet for 2 weeks before study initiation. ApoE knockout mice were then fed ad libitum a 60% fat diet, with 0.15% added cholesterol to induce dyslipidemia and obesity. […]
as §2

With “GTCCCTGAAGATGTCAATGC (2'-MOE gapmer with phosphorothioates, pattern not given here) [ISIS 147764, 2′-MOE gapmer phosphorothioate oligonucleotide to mouse apolipoprotein B]” the “reduction of target mRNA levels in liver” value ([1]; 5 mg/kg i.p. every three days) was 15%, the “reduction of target mRNA levels in liver” value ([1]; 25 mg/kg i.p. every three days) was 75% and the “reduction of target mRNA levels in liver” value ([1]; 50 mg/kg i.p. every three days) was 88%. The “Percent Inhibition of cholesterol levels” value ([2]; 5 mg/kg, 0 weeks) was 0%, the “Percent Inhibition of cholesterol levels” value ([2]; 5 mg/kg, 2 weeks) was 5% and the “Percent Inhibition of cholesterol levels” value ([2]; 5 mg/kg, 6 weeks) was 10%. The triglycerides ([2]; 5 mg/kg) was 125 mg/dL, the serum cholesterol ([2]; 5 mg/kg) was 225 mg/dL and the “Percent Inhibition of cholesterol levels” value ([2]; 25 mg/kg, 0 weeks) was 0%. For the same sequence, the “Percent Inhibition of cholesterol levels” value ([2]; 25 mg/kg, 2 weeks) was 12%, the “Percent Inhibition of cholesterol levels” value ([2]; 25 mg/kg, 6 weeks) was 45% and the triglycerides ([2]; 25 mg/kg) was 150 mg/dL. For the same sequence, the serum cholesterol ([2]; 25 mg/kg) was 125 mg/dL, the “Percent Inhibition of cholesterol levels” value ([2]; 50 mg/kg, 0 weeks) was 0% and the “Percent Inhibition of cholesterol levels” value ([2]; 50 mg/kg, 2 weeks) was 20%. For the same sequence, the “Percent Inhibition of cholesterol levels” value ([2]; 50 mg/kg, 6 weeks) was 55%, the triglycerides ([2]; 50 mg/kg) was 85 mg/dL and the serum cholesterol ([2]; 50 mg/kg) was 110 mg/dL. For the same sequence, the “HDL Percent Inhibition” value ([3]; 5 mg/kg, 0 weeks) was 0%, the “LDL Percent Inhibition” value ([3]; 5 mg/kg, 0 weeks) was 2% and the “VLDL Percent Inhibition” value ([3]; 5 mg/kg, 0 weeks) was 0%. For the same sequence, the “HDL Percent Inhibition” value ([3]; 5 mg/kg, 2 weeks) was 5%, the “LDL Percent Inhibition” value ([3]; 5 mg/kg, 2 weeks) was −30% and the “VLDL Percent Inhibition” value ([3]; 5 mg/kg, 2 weeks) was 25%. For the same sequence, the “HDL Percent Inhibition” value ([3]; 5 mg/kg, 6 weeks) was 10%, the “LDL Percent Inhibition” value ([3]; 5 mg/kg, 6 weeks) was −10% and the “VLDL Percent Inhibition” value ([3]; 5 mg/kg, 6 weeks) was 10%. For the same sequence, the “HDL Percent Inhibition” value ([3]; 25 mg/kg, 0 weeks) was 0%, the “LDL Percent Inhibition” value ([3]; 25 mg/kg, 0 weeks) was 0% and the “VLDL Percent Inhibition” value ([3]; 25 mg/kg, 0 weeks) was 0%. The “HDL Percent Inhibition” value ([3]; 25 mg/kg, 2 weeks) was 10%, the “LDL Percent Inhibition” value ([3]; 25 mg/kg, 2 weeks) was 10% and the “VLDL Percent Inhibition” value ([3]; 25 mg/kg, 2 weeks) was 30%. The “HDL Percent Inhibition” value ([3]; 25 mg/kg, 6 weeks) was 45%, the “LDL Percent Inhibition” value ([3]; 25 mg/kg, 6 weeks) was 55% and the “VLDL Percent Inhibition” value ([3]; 25 mg/kg, 6 weeks) was −30%. For the same sequence, the “lowering all categories of serum lipoproteins investigated, compared with atorvastatin” value ([3]; 50 mg/kg) was “to a greater extent than atorvastatin”, the “HDL Percent Inhibition” value ([3]; 50 mg/kg, 0 weeks) was 0% and the “LDL Percent Inhibition” value ([3]; 50 mg/kg, 0 weeks) was 0%. For the same sequence, the “VLDL Percent Inhibition” value ([3]; 50 mg/kg, 0 weeks) was 0%, the “HDL Percent Inhibition” value ([3]; 50 mg/kg, 2 weeks) was 10% and the “LDL Percent Inhibition” value ([3]; 50 mg/kg, 2 weeks) was 40%. For the same sequence, the “VLDL Percent Inhibition” value ([3]; 50 mg/kg, 2 weeks) was 40%, the “HDL Percent Inhibition” value ([3]; 50 mg/kg, 6 weeks) was 50% and the “LDL Percent Inhibition” value ([3]; 50 mg/kg, 6 weeks) was 90%. The “VLDL Percent Inhibition” value ([3]; 50 mg/kg, 6 weeks) was 15%, the “Lipoprotein Levels HDL” value ([4]; 5 mg/kg) was 49 mg/dL and the “Glucose Levels” value ([4]; 5 mg/kg) was 195 mg/dL. The “Lipoprotein Levels LDL” value ([4]; 5 mg/kg) was 475 mg/dL, the “Lipoprotein Levels VLDL” value ([4]; 5 mg/kg) was 1111 mg/dL and the “Cholesterol Levels” value ([4]; 5 mg/kg) was 1630 mg/dL. For the same sequence, the “Lipoprotein Levels HDL” value ([4]; 25 mg/kg) was 62 mg/dL, the “Glucose Levels” value ([4]; 25 mg/kg) was 209 mg/dL and the “Lipoprotein Levels LDL” value ([4]; 25 mg/kg) was 500 mg/dL. For the same sequence, the “Lipoprotein Levels VLDL” value ([4]; 25 mg/kg) was 1194 mg/dL, the “Cholesterol Levels” value ([4]; 25 mg/kg) was 1750 mg/dL and the “Lipoprotein Levels HDL” value ([4]; 50 mg/kg) was 61 mg/dL. The “Glucose Levels” value ([4]; 50 mg/kg) was 191 mg/dL, the “Lipoprotein Levels LDL” value ([4]; 50 mg/kg) was 325 mg/dL and the “Lipoprotein Levels VLDL” value ([4]; 50 mg/kg) was 1113 mg/dL. The “Cholesterol Levels” value ([4]; 50 mg/kg) was 1490 mg/dL, the “changes in liver enzyme levels” value [5] was “No significant changes” and the “Liver Enzyme Levels AST” value ([5]; 5 mg/kg) was 50 IU/L. For the same sequence, the “Liver Enzyme Levels ALT” value ([5]; 5 mg/kg) was 48 IU/L, the “Liver Enzyme Levels AST” value ([5]; 25 mg/kg) was 60 IU/L and the “Liver Enzyme Levels ALT” value ([5]; 25 mg/kg) was 59 IU/L. The “Liver Enzyme Levels AST” value ([5]; 50 mg/kg) was 85 IU/L and the “Liver Enzyme Levels ALT” value ([5]; 50 mg/kg) was 87 IU/L.
